In ChEMBL document CHEMBL4130595, “Antitubercular Nitroimidazoles Revisited: Synthesis and Activity of the Authentic 3-Nitro Isomer of Pretomanid” (ACS Med Chem Lett, 2017):
In brackets after ≈: the same amount, converted by molar mass.

Key:
[1] = test system: Vero; assay: Cytotoxicity against African green monkey Vero cells after 72 hrs by MTS/PMS assay; assay type: cell-based; conditions: Chlorocebus sabaeus
[2] = test system: Mycobacterium tuberculosis; assay: Antitubercular activity against Mycobacterium tuberculosis H37Rv ATCC 27294 incubated for 10 days under low oxygen condition followed by second incubation under aerobic condition for 28 hrs by LORA; assay type: functional
[3] = test system: Mycobacterium tuberculosis; assay: Antitubercular activity against Mycobacterium tuberculosis H37Rv measured after 7 days under aerobic condition by alamar blue assay; assay type: functional; conditions: 168 h

Row | Compound | IC50 [1] [µM] | MIC [2] [µM] | MIC [3] [µM]
1 | Cc1cc(CO[C@@H]2COc3nc([N+](=O)[O-])cn3C2)ccc1OC(F)(F)F | > 128 | 1 (≈ 0.373 µg/mL) | 0.063 (≈ 0.0235 µg/mL)
2 | O=[N+]([O-])c1cnc2n1C[C@H](OCc1ccc(OC(F)(F)F)cc1)CO2 | > 128 | > 128 | > 128
3 | O=[N+]([O-])c1cnc2n1C[C@H](O)CO2 | > 128 | > 128 | > 128
4 | COc1nc2ccc(Br)cc2cc1[C@@H](c1ccccc1)[C@@](O)(CCN(C)C)c1cccc2ccccc12 [BEDAQUILINE] | > 10 | 0.11 (≈ 0.0611 µg/mL) | 0.07 (≈ 0.0389 µg/mL)
5 | NNC(=O)c1ccncc1 [ISONIAZID] | – | > 128 | 0.34 (≈ 0.0466 µg/mL)
6 | CC(=O)NC[C@H]1CN(c2ccc(N3CCOCC3)c(F)c2)C(=O)O1 [LINEZOLID] | – | 2.8 (≈ 0.945 µg/mL) | 2.9 (≈ 0.978 µg/mL)
7 | Cc1ncc([N+](=O)[O-])n1CCO [METRONIDAZOLE] | – | 79 (≈ 13.5 µg/mL) | > 512
8 | COc1c(N2C[C@@H]3CCCN[C@@H]3C2)c(F)cc2c(=O)c(C(=O)O)cn(C3CC3)c12 [MOXIFLOXACIN] | – | > 128 | 0.42 (≈ 0.169 µg/mL)
9 | CO[C@H]1/C=C/O[C@@]2(C)Oc3c(C)c(O)c4c(O)c(c(/C=N/N5CCN(C)CC5)c(O)c4c3C2=O)NC(=O)/C(C)=C\C=C\[C@H](C)[C@H](O)[C@@H](C)[C@@H](O)[C@@H](C)[C@H](OC(C)=O)[C@@H]1C [RIFAMPIN] | > 100 | 0.64 (≈ 0.527 µg/mL) | 0.049 (≈ 0.0403 µg/mL)
